From patent US12662491B2 (Redona Therapeutics, Inc., priority 2020, dated 2026)

Target: T1, Zcchc11 enzyme (Homo sapiens, UniProt Q5TAX3)
T1 construct: made in house; host or cells: HEK293 cells (Zcchc11); E. coli Rosetta II (LIN28A)
T1 sequence (Q5TAX3 212-1420): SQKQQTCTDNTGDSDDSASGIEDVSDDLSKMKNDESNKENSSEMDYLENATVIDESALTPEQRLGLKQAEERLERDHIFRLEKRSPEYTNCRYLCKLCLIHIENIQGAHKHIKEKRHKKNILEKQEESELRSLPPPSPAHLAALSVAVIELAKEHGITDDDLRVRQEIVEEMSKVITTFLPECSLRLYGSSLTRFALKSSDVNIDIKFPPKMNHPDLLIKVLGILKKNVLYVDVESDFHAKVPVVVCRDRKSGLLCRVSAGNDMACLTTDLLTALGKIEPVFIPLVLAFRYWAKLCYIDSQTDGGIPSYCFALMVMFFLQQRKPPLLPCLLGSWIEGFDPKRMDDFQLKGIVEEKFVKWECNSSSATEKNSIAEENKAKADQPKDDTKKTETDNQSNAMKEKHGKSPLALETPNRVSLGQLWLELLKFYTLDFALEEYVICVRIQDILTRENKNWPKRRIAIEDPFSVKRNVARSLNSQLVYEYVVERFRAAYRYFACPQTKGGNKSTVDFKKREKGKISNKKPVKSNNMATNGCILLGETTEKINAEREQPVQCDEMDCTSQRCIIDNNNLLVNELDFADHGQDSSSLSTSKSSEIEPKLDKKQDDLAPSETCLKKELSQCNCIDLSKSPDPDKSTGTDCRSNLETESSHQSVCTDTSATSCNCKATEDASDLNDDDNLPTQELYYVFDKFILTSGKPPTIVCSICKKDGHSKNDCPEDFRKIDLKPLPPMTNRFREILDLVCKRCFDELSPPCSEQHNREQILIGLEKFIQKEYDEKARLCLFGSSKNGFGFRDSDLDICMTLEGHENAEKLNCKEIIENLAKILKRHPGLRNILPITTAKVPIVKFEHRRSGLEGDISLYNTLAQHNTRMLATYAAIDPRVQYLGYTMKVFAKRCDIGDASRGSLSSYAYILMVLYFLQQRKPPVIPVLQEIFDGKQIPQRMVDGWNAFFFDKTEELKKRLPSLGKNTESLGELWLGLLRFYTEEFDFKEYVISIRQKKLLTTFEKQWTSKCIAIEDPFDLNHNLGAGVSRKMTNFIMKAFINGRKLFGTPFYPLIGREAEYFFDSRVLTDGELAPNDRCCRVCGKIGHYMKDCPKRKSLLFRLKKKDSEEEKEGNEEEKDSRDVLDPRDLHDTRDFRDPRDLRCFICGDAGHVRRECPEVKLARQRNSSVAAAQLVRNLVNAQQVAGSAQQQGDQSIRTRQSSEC
Assay: TUTase assay (Zcchc11 assay, Lin28a-dependent polyuridylation of pre-let-7)
Type: biochemical
Conditions: Lin28a-dependent Zcchc11 (Z11) TUTase assay; read-out: Potency Lin28a-dep Z11 IC50
Procedure, shortened: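 Human Zcchc11 residues 212-1420 (HEK293-expressed, MBP tag cleaved, C-terminal FLAG) at 0.2 nM, with 10 nM full-length human LIN28A and 2 nM 5′-fluorescein pre-let-7, preincubated with compound 30 min at room temperature. Reaction started with 5 uM UTP plus 4 nM 3′-rhodamine A20 quench probe; fluorescein loss read kinetically, IC50 from initial rates.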

SMILES | IC50 [nM]
Cc1nc(N2CC(N(C)C)C2)ccc1-n1cc(C(=O)O)c(=O)c2cc(Cl)c(N3CCC[C@@H]3COc3ncccc3Cl)cc21 [Example 584, (R)-6-chloro-7-(2-(((3-chloropyridin-2-yl)oxy)methyl)pyrrolidin-1-yl)-1-(6-(3-(dimethylamino)azetidin-1-yl)-2-methylpyridin-3-yl)-4-oxo-1,4-dihydroquinoline-3-carboxylic acid] | ≤ 1000
Nc1ccc(Cn2cc(C(=O)O)c(=O)c3cc(Cl)c(N4CCC[C@@H]4COc4ncccc4Cl)cc32)cn1 [Example 585, (R)-1-((6-aminopyridin-3-yl)methyl)-6-chloro-7-(2-(((3-chloropyridin-2-yl)oxy)methyl)pyrrolidin-1-yl)-4-oxo-1,4-dihydroquinoline-3-carboxylic acid] | 1000 to 10000
Nc1cc(F)c(-n2cc(C(=O)O)c(=O)c3cc(Cl)c(N4CCC[C@@H]4COc4ncccc4Cl)cc32)cn1 [Example 586, (R)-1-(6-amino-4-fluoropyridin-3-yl)-6-chloro-7-(2-(((3-chloropyridin-2-yl)oxy)methyl)pyrrolidin-1-yl)-4-oxo-1,4-dihydroquinoline-3-carboxylic acid] | ≤ 1000
CN(C)C1CN(c2ccc(-n3cc(C(=O)O)c(=O)c4cc(Cl)c(N5CCC[C@@H]5COc5ncco5)cc43)cn2)C1 [Example 587, (R)-6-chloro-1-(6-(3-(dimethylamino)azetidin-1-yl)pyridin-3-yl)-7-(2-((oxazol-2-yloxy)methyl)pyrrolidin-1-yl)-4-oxo-1,4-dihydroquinoline-3-carboxylic acid] | ≤ 1000
O=C(O)c1cn(C2(c3ccccc3)CC2)c2cc(N3CCC[C@@H]3COc3ncccc3Cl)c(Cl)cc2c1=O [Example 588, (R)-6-chloro-7-(2-(((3-chloropyridin-2-yl)oxy)methyl)pyrrolidin-1-yl)-4-oxo-1-(1-phenylcyclo-propyl)-1,4-dihydroquinoline-3-carboxylic acid] | 1000 to 10000
Nc1cc(Cn2cc(C(=O)O)c(=O)c3cc(Cl)c(N4CCC[C@@H]4COc4ncccc4Cl)cc32)ccn1 [Example 589, (R)-1-((2-aminopyridin-4-yl)methyl)-6-chloro-7-(2-(((3-chloropyridin-2-yl)oxy)methyl)pyrrolidin-1-yl)-4-oxo-1,4-dihydroquinoline-3-carboxylic acid] | 1000 to 10000
O=C(O)c1cn(-c2cnccn2)c2cc(N3C[C@H](F)C[C@@H]3COc3ncccc3Cl)c(Cl)cc2c1=O [Example 590, 6-chloro-7-((2R,4R)-2-(((3-chloropyridin-2-yl)oxy)methyl)-4-fluoropyrrolidin-1-yl)-4-oxo-1-(pyrazin-2-yl)-1,4-dihydroquinoline-3-carboxylic acid] | ≤ 1000
CN(C)C1CN(c2ccc(-n3cc(C(=O)O)c(=O)c4cc(Cl)c(N5CCC[C@@H]5CCOc5ccccn5)cc43)cn2)C1 [Example 591, (R)-6-chloro-1-(6-(3-(dimethylamino)azetidin-1-yl)pyridin-3-yl)-4-oxo-7-(2-(2-(pyridin-2-yloxy)ethyl)pyrrolidin-1-yl)-1,4-dihydroquinoline-3-carboxylic acid] | ≤ 1000
C#Cc1cc2c(=O)c(C(=O)O)cn(-c3ccc(N4CC(N(C)C)C4)nc3)c2cc1N1CCC[C@@H]1COc1ncccc1Cl [Example 592, (R)-7-(2-(((3-chloropyridin-2-yl)oxy)methyl)pyrrolidin-1-yl)-1-(6-(3-(dimethylamino)azetidin-1-yl)pyridin-3-yl)-6-ethynyl-4-oxo-1,4-dihydroquinoline-3-carboxylic acid] | ≤ 1000
CN(C)C1CN(c2ccc(-n3cc(C(=O)O)c(=O)c4cc(Cl)c(N5CC(c6ccccc6)C[C@@H]5COc5ncccc5Cl)cc43)cn2)C1 (stereo partly drawn) [Example 593, 6-chloro-7-((2R)-2-(((3-chloropyridin-2-yl)oxy)methyl)-4-phenyl-pyrrolidin-1-yl)-1-(6-(3-(dimethylamino)azetidin-1-yl)pyridin-3-yl)-4-oxo-1,4-dihydroquinoline-3-carboxylic acid] | ≤ 1000
CN(C)C1CN(c2ccc(-n3cc(C(=O)O)c(=O)c4cc(Cl)c(N5CCC[C@@H]5COC5CCOC5)cc43)cn2)C1 (stereo partly drawn) [Example 594, 6-chloro-1-(6-(3-(dimethylamino)azetidin-1-yl)pyridin-3-yl)-4-oxo-7-((2R)-2-(((tetrahydro-furan-3-yl)oxy)methyl)pyrrolidin-1-yl)-1,4-dihydroquinoline-3-carboxylic acid] | 1000 to 10000
CN(C)C1CN(c2ccc(-n3cc(C(=O)O)c(=O)c4cc(Cl)c(N5CCC[C@@H]5COC5CCOCC5)cc43)cn2)C1 [Example 595, (R)-6-chloro-1-(6-(3-(dimethylamino)azetidin-1-yl)pyridin-3-yl)-4-oxo-7-(2-(((tetrahydro-2H-pyran-4-yl)oxy)methyl)pyrrolidin-1-yl)-1,4-dihydroquinoline-3-carboxylic acid] | 1000 to 10000
CN(C)C1CN(c2ccc(-n3cc(C(=O)O)c(=O)c4cc(Cl)c(N5CCC[C@@H]5CSc5ncccc5Cl)cc43)cn2)C1 [Example 596, (R)-6-chloro-7-(2-(((3-chloropyridin-2-yl)thio)methyl)pyrrolidin-1-yl)-1-(6-(3-(dimethylamino)azetidin-1-yl)pyridin-3-yl)-4-oxo-1,4-dihydroquinoline-3-carboxylic acid] | ≤ 1000
CN(C)C1CN(c2ccc(-n3cc(C(=O)O)c(=O)c4cc(Cl)c(N5Cc6cccnc6[C@@H]5COc5ncccc5Cl)cc43)cn2)C1 [Example 597, (R)-6-chloro-7-(7-(((3-chloropyridin-2-yl)oxy)methyl)-5,7-dihydro-6H-pyrrolo[3,4-b]pyridin-6-yl)-1-(6-(3-(dimethylamino)azetidin-1-yl)pyridin-3-yl)-4-oxo-1,4-dihydroquinoline-3-carboxylic acid] | ≤ 1000
CN(C)C1CN(c2ccc(-n3cc(C(=O)O)c(=O)c4cc(Cl)c(N5C[C@@H](O)C[C@@H]5COc5ncccc5Cl)cc43)cn2)C1 [Example 598, 6-chloro-7-((2R,4S)-2-(((3-chloropyridin-2-yl)oxy)methyl)-4-hydroxypyrrolidin-1-yl)-1-(6-(3-(dimethylamino)azetidin-1-yl)pyridin-3-yl)-4-oxo-1,4-dihydroquinoline-3-carboxylic acid] | ≤ 1000
CN(C)C1CN(c2ccc(-n3cc(C(=O)O)c(=O)c4cc(Cl)c(N5CC(c6cccnc6)C[C@@H]5COc5ncccc5Cl)cc43)cn2)C1 (stereo partly drawn) [Example 599, 6-chloro-7-((2R)-2-(((3-chloropyridin-2-yl)oxy)methyl)-4-(pyridin-3-yl)pyrrolidin-1-yl)-1-(6-(3-(dimethylamino)azetidin-1-yl)pyridin-3-yl)-4-oxo-1,4-dihydroquinoline-3-carboxylic acid] | ≤ 1000
CN(C)C1CN(c2ccc(-n3cc(C(=O)O)c(=O)c4cc(F)c(N5CCC[C@@H]5COc5cc(O)ccn5)c(F)c43)cn2)C1 [Example 600, (R)-1-(6-(3-(dimethylamino)azetidin-1-yl)pyridin-3-yl)-6,8-difluoro-7-(2-(((4-hydroxypyridin-2-yl)oxy)methyl)pyrrolidin-1-yl)-4-oxo-1,4-dihydroquinoline-3-carboxylic acid] | ≤ 1000
CN(CCN1CCC1)c1ccc(-n2cc(C(=O)O)c(=O)c3cc(Cl)c(N4CCC[C@@H]4COc4ncccc4Cl)cc32)cn1 [Example 601, (R)-1-(6-((2-(azetidin-1-yl)ethyl)(methyl)amino)pyridin-3-yl)-6-chloro-7-(2-(((3-chloropyridin-2-yl)oxy)methyl)pyrrolidin-1-yl)-4-oxo-1,4-dihydroquinoline-3-carboxylic acid] | ≤ 1000
CN(C)C1CN(c2ccc(-n3cc(C(=O)O)c(=O)c4cc(Cl)c(N5C[C@H](O)C[C@@H]5COc5ncccc5Cl)cc43)cn2)C1 [Example 602, 6-chloro-7-((2R,4R)-2-(((3-chloroypridin-2-yl)oxy)methyl)-4-hydroxypyrrolidin-1-yl)-1-(6-(3-(dimethylamino)azetidin-1-yl)pyridin-3-yl)-4-oxo-1,4-dihydroquinoline-3-carboxylic acid] | ≤ 1000
